Reference: patent publication US20260209249A1, “NOVEL TRICYCLIC COMPOUND AS KRAS G12D INHIBITOR, AND USE THEREOF” (SK Biopharmaceuticals Co., priority 2022, published 2026)
pIC50: −log10 of the molar value.

Columns and labels:
[1] = molecular target: T1, GDP-KRAS G12D mutant protein (Homo sapiens, UniProt P01116, G12D); assay: Differential scanning fluorimetry (DSF) binding affinity to GDP-KRAS G12D mutant protein; conditions: DSF thermal shift, 10 μM compound, 4 μg KRAS protein
T1 construct: purchased Daegu Gyeongbuk Medical Innovation Foundation (DGMIF), made to order
Summary of the method: (§1)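 Each sample held 4 μg recombinant KRAS G12D (GDP- or GppNHp-bound) and 10 μM compound, incubated 30 min at room temperature before adding 2× SYPRO Orange. The GDP form was run in kit buffer, the GppNHp form in 50 mM HEPES pH 7.5. Melt was 25–99 °C at 0.05 °C/s (580/623 nm), reported as ΔTm versus no compound.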

[2] = molecular target: T2, GppNHp-KRAS G12D mutant protein (Homo sapiens, UniProt P01116, G12D); assay: Differential scanning fluorimetry (DSF) binding affinity to GppNHp-KRAS G12D mutant protein; conditions: DSF thermal shift, 10 μM compound, 4 μg KRAS protein, 50 mM HEPES (pH 7.5)
T2 construct: purchased Daegu Gyeongbuk Medical Innovation Foundation (DGMIF), made to order
Summary of the method: as §1

[3] = test system: ERK phosphorylation (pERK) induced by KRAS G12D mutation; assay: Inhibitory activity against ERK phosphorylation (pERK) induced by KRAS G12D mutation, immunofluorescence assay in AsPC-1 cells; format: cell-based; conditions: Homo sapiens, ASPC1, 3 h drug treatment, pERK (Thr202/Tyr204) signal normalized to DAPI
From the text: Test Example 2: Measurement of Inhibitory Activity Against ERK Phosphorylation (pERK) Induced by KRAS G12D Mutation (Immunofluorescence Assay)
Immunofluorescence is a method used to detect specific substances within cells or tissues through antigen-antibody interactions, and allows for the identification of the presence or absence of specific proteins by using antibodies labeled with various fluorescent dyes. After a primary antibody that recognizes a specific protein selectively binds to the epitope, a fluorescent antibody (secondary antibody) is bound to the primary antibody.
It was confirmed as follows that the compounds according to an embodiment of the present application inhibit phosphorylation of extracellular signal-regulated kinases (Phospho-ERK, pERK) induced by KRAS G12D mutation.
AsPC-1 cells were seeded at a density of 10,000 cells/well in RPMI-1640 medium containing 10% FBS and 1% Penicillin-Streptomycin in 384-well plates (Perkinelmer, #6057300) and allowed to attach for 16 h. After the cells attached to the plate, the cells were treated with drugs at a maximum concentration of 10 μM with a 3-fold serial dilution. After 3 h of drug treatment, the medium was removed and the cells were treated with 50 μL of 4% formaldehyde (Biosesang, #PC2031-050-00) for 20 min and washed three times with 50 μL of phosphate buffered saline (PBS).
50 μL of PBS containing 0.3% Triton X-100 (Sigma, #T8787-250 mL) was added and reacted for 20 minutes to allow antibody penetration into cells, and then the plate was washed three times with 50 μL of PBS. To block nonspecific binding of antibodies to the plate, 50 μL of PBS containing 2% BSA (sigma, #A7906-500G) and 0.01% Tween-20 (Sigma, #P1379-500 mL) (hereinafter referred to as PBS-T) was added, and reacted at room temperature for 2 hours.
To detect pERK, the primary antibody (cell signaling, #9101) was diluted 1:500 in PBS-T containing 2% BSA, 50 μL was added, and the plate was stored in a refrigerator at 4° C. for 16 hours to react, followed by washing three times with 50 μL of PBS-T. To visualize the primary antibody, the secondary antibody, i.e., anti-rabbit-Alexa Fluor 488 (ThermoFisher, #A11008), was diluted 1:1000 in PBS-T containing 2% BSA, 50 μL was added, and after reaction at room temperature for 1 hour, the plate was washed three times with 50 μL of PBS-T. Next, to visualize the nuclei of cells, DAPI (Thermofisher, #62248, 1 mg/mL) was diluted 1:1000 in PBS-T, 50 μL each was added, reacted at room temperature for 10 minutes, and washed three times with 50 μL of PBS-T. 50 μL of PBS-T was added to each well, and the plate was read for fluorescence value using HCS equipment (MOLECULAR DEVICES/ImageXpress Micro).
Data analysis was performed by normalizing the pERK (Thr202/Tyr204) signal to the DAPI signal and calculating the percentage relative to the DMSO as a control. The IC50 value was determined by fitting a four-parameter dose-response curve using the GraphPad Prism software (version 8.4.3), and interpolating the concentration at which 50% inhibition occurred. The results of calculating the inhibitory efficacy of the compounds according to one embodiment of the present application against KRAS G12D mutation-induced pERK activity are shown in Table 3.

| Compound | GDP-KRAS G12D (ΔTmD, ° C.) [1] [°C] | GppNHp-KRAS G12D (ΔTmD, ° C.) [2] [°C] | pIC50 [3] |
| --- | --- | --- | --- |
| C#Cc1c(F)ccc2cc(O)cc(-c3cc4nc(OCC5(CN6CCCC6)CC5)nc(N5[C@@H]6CC[C@H]5CNC6)c4n4ccnc34)c12 [Example 17, 4-(1-((1R,5S)-3,8-diazabicyclo[3.2.1]octan-8-yl)-3-((1-(pyrrolidin-1-ylmethyl)cyclopropyl)methoxy)imidazo[1′,2′:1,6]pyrido[3,2-d]pyrimidin-6-yl)-5-ethynyl-6-fluoronaphthalen-2-ol] | 9.45 | 4.71 | 5.93 |
| C#Cc1c(F)ccc2cc(O)cc(-c3c(F)c4nc(OC[C@@]56CCCN5C/C(=C\F)C6)nc(N5C[C@H]6CC[C@@H](C5)N6)c4c4cc(C)oc34)c12 [Example 64, 4-(1-((1R,5S)-3,8-diazabicyclo[3.2.1]octan-3-yl)-5-fluoro-3-(((S,Z)-2-(fluoromethylene)tetrahydro-1H-pyrrolizin-7a(5H)-yl)methoxy)-8-methylfuro[3,2-n]quinazolin-6-yl)-5-ethynyl-6-fluoronaphthalen-2-ol] | 15.24 | 11.39 | 7.21 |
| CN(C)C1(CNc2nc(OC[C@@]34CCCN3C[C@H](F)C4)nc3cc(-c4cc(O)cc5ccc(F)c(F)c45)c4nccn4c23)CCC1 [Example 5, 4-(1-(((1-(dimethylamino)cyclobutyl)methyl)amino)-3-(((2R,7aS)-2-fluorotetrahydro-1H-pyrrolizin-7a(5H)-yl)methoxy)imidazo[1′,2′:1,6]pyrido[3,2-d]pyrimidin-6-yl)-5,6-difluoronaphthalen-2-ol] | 4.27 | 1.60 | 6.02 |
| CCc1c(F)ccc2cc(O)cc(-c3cc4nc(OC[C@@]56CCCN5C[C@H](F)C6)nc(N5C[C@H]6CC[C@@H](C5)N6)c4c4cn(C)nc34)c12 [Example 83, 4-(9-((1R,5S)-3,8-diazabicyclo[3.2.1]octan-3-yl)-7-(((2R,7aS)-2-fluorotetrahydro-1H-pyrrolizin-7a(5H)-yl)methoxy)-2-methyl-2H-pyrazolo[4,3-f]quinazolin-4-yl)-5-ethyl-6-fluoronaphthalen-2-ol] | 10.06 | 5.76 | 7.00 |
| C#Cc1c(F)ccc2cc(O)cc(-c3cc4nc(OCC5(CN6C[C@H]7C[C@@H]6CO7)CC5)nc(N5C[C@H]6CC[C@@H](C5)N6)c4n4ccnc34)c12 [Example 10, 4-(3-((1-(((1 R,4R)-2-oxa-5-azabicyclo[2.2.1]heptan-5-yl)methyl)cyclopropyl)methoxy)-1-((1 R,5S)-3,8-diazabicyclo[3.2.1]octan-3-yl)imidazo[1′,2′:1,6]pyrido[3,2-d]pyrimidin-6-yl)-5-ethynyl-6-fluoronaphthalen-2-ol] | 9.00 | 2.79 | 5.68 |
| Cc1cc2c(o1)c(-c1ccc(F)c3sc(N)c(C#N)c13)c(F)c1nc(OC[C@@]34CCCN3C[C@H](F)C4)nc(N3C[C@H]4CC[C@@H](C3)N4)c12 [Example 62, 4-(1-((1R,5S)-3,8-diazabicyclo[3.2.1]octan-3-yl)-5-fluoro-3-(((2R,7aS)-2-fluorotetrahydro-1H-pyrrolizin-7a(5H)-yl)methoxy)-8-methylfuro[3,2-f]quinazolin-6-yl)-2-amino-7-fluorobenzo[b]thiophene-3-carbonitrile] | 9.01 | 8.57 | 6.20 |
| Oc1cc(-c2cc3nc(OC[C@@]45CCCN4C[C@H](F)C5)nc(N4C[C@H]5CC[C@@H](C4)N5)c3n3ccnc23)c2c(F)c(F)ccc2c1 [Example 3, 4-(1-((1 R,5S)-3,8-diazabicyclo[3.2.1]octan-3-yl)-3-(((2R,7aS)-2-fluorotetrahydro-1H-pyrrolizin-7a(5H)-yl)methoxy)imidazo[1′,2′:1,6]pyrido[3,2-d]pyrimidin-6-yl)-5,6-difluoronaphthalen-2-ol] | 6.05 | 1.90 | 5.85 |
| C#Cc1c(F)ccc2cc(O)cc(-c3cc4nc(OC[C@@]56CCCN5C[C@H](F)C6)nc(NCC5(N(C)C)CCC5)c4n4ccnc34)c12 [Example 6, 4-(1-(((1-(dimethylamino)cyclobutyl)methyl)amino)-3-(((2R,7aS)-2-fluorotetrahydro-1H-pyrrolizin-7a(5H)-yl)methoxy)imidazo[1′,2′:1,6]pyrido[3,2-d]pyrimidin-6-yl)-5-ethynyl-6-fluoronaphthalen-2-ol] | – | – | 5.63 |
| Cc1cc2c(o1)c(-c1cc(O)cc3ccccc13)c(F)c1nc(OC[C@@]34CCCN3C[C@H](F)C4)nc(NCC3(N(C)C)CCC3)c12 [Example 47, 4-(1-(((1-(dimethylamino)cyclobutyl)methyl)amino)-5-fluoro-3-(((2R,7aS)-2-fluorotetrahydro-1H-pyrrolizin-7a(5H)-yl)methoxy)-8-methylfuro[3,2-n]quinazolin-6-yl)naphthalen-2-ol] | – | – | 5.10 |
| C#Cc1c(F)ccc2cc(O)cc(-c3c(F)c4nc(OC[C@@]56CCCN5CC(=C(F)F)C6)nc(N5CC6CCC(C5)N6)c4c4cn(C)nc34)c12 [Example 92, 4-(9-((1R,5S)-3,8-diazabicyclo[3.2.1]octan-3-yl)-7-(((S)-2-(difluoromethylene)tetrahydro-1H-pyrrolizin-7a(5H)-yl)methoxy)-5-fluoro-2-methyl-2H-pyrazolo[4,3-]quinazolin-4-yl)-5-ethynyl-6-fluoronaphthalen-2-ol] | 17.61 | 13.02 | – |
| Cc1cc2c(o1)c(-c1nc(N)ccc1C(F)(F)F)c(F)c1nc(OC[C@@]34CCCN3C[C@H](F)C4)nc(N3C[C@H]4CC[C@@H](C3)N4)c12 [Example 50, 6-(1-((1R,5S)-3,8-diazabicyclo[3.2.1]octan-3-yl)-5-fluoro-3-(((2R,7aS)-2-fluorotetrahydro-1H-pyrrolizin-7a(5H)-yl)methoxy)-8-methylfuro[3,2-f]quinazolin-6-yl)-5-(trifluoromethyl)pyridin-2-amine] | 0.58 | −0.31 | – |
| C#Cc1c(F)ccc2cc(O)cc(-c3cc4nc(OCC5(CN6CC[C@@H](F)C6)CC5)nc(N5C[C@H]6CC[C@@H](C5)N6)c4n4ccnc34)c12 [Example 30, 4-(1-((1R,5S)-3,8-diazabicyclo[3.2.1]octan-3-yl)-3-((1-(((R)-3-fluoropyrrolidin-1-yl)methyl)cyclopropyl)methoxy)imidazo[1′,2′:1,6]pyrido[3,2-d]pyrimidin-6-yl)-5-ethynyl-6-fluoronaphthalen-2-ol] | 8.12 | 2.81 | – |
| Cc1cc2c(o1)c(-c1ccc(F)c3sc(N)nc13)c(F)c1nc(OC[C@@]34CCCN3C[C@H](F)C4)nc(N3C[C@H]4CC[C@@H](C3)N4)c12 [Example 55, 4-(1-((1R,5S)-3,8-diazabicyclo[3.2.1]octan-3-yl)-5-fluoro-3-(((2R,7aS)-2-fluorotetrahydro-1H-pyrrolizin-7a(5H)-yl)methoxy)-8-methylfuro[3,2-n]quinazolin-6-yl)-7-fluorobenzo[d]thiazol-2-amine] | 3.24 | 1.91 | – |
